pIC50: −log10 of the molar value. Several values for one entry are separate records, joined by “and”; a condition that tells them apart may be missing. Equal entries are not always repeated. Entries after “also recorded” stand apart in the source; their conditions may differ. Where two headings read alike, the source gives them in different places.

The target in data set [1] is T1, human TYR (Homo sapiens, UniProt P14679).
T1 construct: expressed in transfected cells
T1 sequence (P14679 19-529): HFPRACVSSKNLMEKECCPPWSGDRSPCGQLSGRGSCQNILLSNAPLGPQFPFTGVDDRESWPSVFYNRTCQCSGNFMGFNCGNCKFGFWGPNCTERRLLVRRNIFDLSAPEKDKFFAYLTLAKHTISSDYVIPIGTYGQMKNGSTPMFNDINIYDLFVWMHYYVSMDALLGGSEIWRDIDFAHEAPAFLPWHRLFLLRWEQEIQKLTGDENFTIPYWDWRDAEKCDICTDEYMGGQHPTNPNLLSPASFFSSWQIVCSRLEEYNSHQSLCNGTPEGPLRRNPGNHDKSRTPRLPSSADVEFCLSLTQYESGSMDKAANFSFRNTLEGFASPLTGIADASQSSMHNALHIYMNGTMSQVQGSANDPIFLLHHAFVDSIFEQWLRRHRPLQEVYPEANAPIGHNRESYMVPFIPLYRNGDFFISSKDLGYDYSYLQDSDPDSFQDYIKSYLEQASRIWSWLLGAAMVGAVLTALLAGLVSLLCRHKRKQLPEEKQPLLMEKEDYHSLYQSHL
Put plainly: In vitro TYR activity assay with lysates of HEK293-TYR cells. Format: biochemical. The settings on record: for IC50: lysates of HEK293-TYR cells, read-out: IC50 against human TYR activity (converted).

For data set [2], the system named is human epidermal melanocytes (HEMs). Put plainly: Melanin synthesis in HEMs stimulated by L-tyrosine. The settings on record: 1.0 mM L-tyrosine, repeated treatment for 6 days. Format: cell-based. As for the experimental part: (§1) Melanogenesis in HEMs was determined as previously described. Cells were pretreated with test material for 60 min, and then melanogenesis was stimulated by adding L-tyrosine (1.0 mM). Media were replaced every other day, and cells were cultured for 6 days. Intracellular melanin was extracted using 0.1 M NaOH at 60°C for 60 min, quantified by measuring absorbance at 490 nm, and normalized for protein content using the Bio-Rad DC assay. Cell viabilities were determined using 3-[4,5-dimethylthiazol-2-yl]-2,5-diphenyltetrazolium bromide.

For data set [3] the test system is unchanged. Put plainly: Cell viability of HEMs (MTT). Format: cell-based. The note with it: repeated treatment for 6 days. As for the experimental part:
as §1

For data set [4], the target named is T2, murine TYR (Mus musculus, UniProt P11344).
T2 sequence (P11344 19-533): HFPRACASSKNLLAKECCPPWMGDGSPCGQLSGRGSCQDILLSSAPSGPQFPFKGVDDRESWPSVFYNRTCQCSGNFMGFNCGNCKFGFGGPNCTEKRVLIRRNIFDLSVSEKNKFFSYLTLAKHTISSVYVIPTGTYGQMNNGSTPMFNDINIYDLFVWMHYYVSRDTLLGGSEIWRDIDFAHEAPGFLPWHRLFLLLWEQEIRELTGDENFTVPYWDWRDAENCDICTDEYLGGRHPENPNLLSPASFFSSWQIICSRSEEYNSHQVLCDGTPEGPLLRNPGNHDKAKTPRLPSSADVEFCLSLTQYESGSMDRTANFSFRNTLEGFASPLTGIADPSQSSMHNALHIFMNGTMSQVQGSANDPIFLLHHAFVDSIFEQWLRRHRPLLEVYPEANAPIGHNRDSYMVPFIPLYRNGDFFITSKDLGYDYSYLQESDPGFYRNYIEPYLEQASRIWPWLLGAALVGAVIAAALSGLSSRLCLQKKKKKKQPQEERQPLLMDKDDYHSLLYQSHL
The data set is described as follows: In vitro TYR activity assay with lysates of murine B16/F10 cells. The format is biochemical. The settings on record: for IC50: read-out: IC50 against murine TYR activity (converted).

Data set [5] has as its target T1, human TYR. Put plainly: In vitro TYR activity assay with lysates of HEMs. Format: biochemical. The note with it: read-out: IC50 against human TYR activity (converted). As for the experimental part: Human epidermal melanocytes (HEMs), derived from moderately pigmented neonatal foreskins, were obtained from Cascade Biologics (Portland, OR, USA). Cells were grown in Medium 254 supplemented with human melanocyte growth supplement (Cascade Biologics) and antibiotics. HEK293 cells and murine melanoma B16/F10 cells (CRL-6475) were obtained from the American Type Culture Collection (Manassas, VA, USA). HEK 293 cells were transformed into HEK293-TYR cells stably expressing human TYR, as previously described. HEK293 cells, HEK293-TYR cells, and murine melanoma B16/F10 cells were cultured in growth medium (Dulbecco's minimum Eagle's medium (DMEM) containing 10% fetal bovine serum and antibiotics (100 U mL^−1 penicillin, 0.1 mg mL^−1 streptomycin, and 0.25 µg mL^−1 amphotericin B)). Cells were cultured at 37°C in a humidified atmosphere containing 5% CO2 and 95% air. Cells were lysed in ice-cold lysis buffer (10 mM Tris-Cl, pH 7.4, 120 mM NaCl, 25 mM KCl, 2.0 mM EGTA, 1.0 mM EDTA, and 0.5% Triton X-100 and protease inhibitor cocktail) and centrifuged at 13,000 ×g for 15 min at 4°C to obtain clear supernatants which were used as cell lysates.
In vitro TYR assays were run for human, murine, and mushroom TYRs. […] The formation of DOPA chrome was monitored by measuring absorbance at 490 nm with a BioRad Model 680 microplate reader (Bio-Rad Laboratories, Inc., Hercules, CA, USA). […]

Data set [6] concerns the target T2, murine TYR. Set-up: method as in Kim et al. [29]. The settings on record: at 100 µM or 22.8 µg mL^−1; ref Kim et al. [29]; cited from earlier work.
Data set [7] concerns the target T2, murine TYR. Set-up: method as in Yanagihara et al. [30]. The note with it: ref Yanagihara et al. [30]; read-out: IC50 against murine TYR (converted); cited from earlier work.
The test system of data set [8] is mushroom TYR. Put plainly: In vitro mushroom TYR activity assay. The format is biochemical. The settings on record: compared with human and murine TYRs. As for the experimental part: In vitro TYR assays were run for human, murine, and mushroom TYRs. The lysates of HEK293-TYR cells were used as a human TYR preparation in most experiments. In some experiments, the lysates of murine B16/F10 cells (Figure 5), HEK293 cells, and HEMs (Figure 6) were used for comparative purposes. Mushroom TYR was purchased from Sigma-Aldrich. The reaction mixture (200 μL) containing either cell lysates (40 μg protein) or mushroom TYR (20 U) and 0.5 mM L-tyrosine, 1 μM DOPA in 100 mM sodium phosphate buffer (pH 6.8) was placed on a 96-well microplate and incubated at 37°C. The formation of DOPA chrome was monitored by measuring absorbance at 490 nm with a BioRad Model 680 microplate reader (Bio-Rad Laboratories, Inc., Hercules, CA, USA). Assays were also run in the absence of TYR enzyme to correct for potential nonenzymatic reactions. Samples and reference inhibitors were included in reaction mixtures at different concentrations.

Usually IC50 stands for the concentration that gives 50% inhibition. Consider `O=C(O)/C=C/c1ccc(O)cc1` [p-coumaric acid, reference compound], for which the IC50 was 4.02 µM in data set [1] and 12.2 µM in data set [4]. For the same compound, the “effect on melanin synthesis in HEMs” value in data set [2] is on record as “dose dependently attenuated”. For the same compound, in data set [3] (at 100 µM), the “cytotoxic effect in HEMs” value is on record as “only a little cytotoxic effect”.

In general, pIC50 refers to the IC50 on a negative log10 scale, so that one unit is a factor of ten. On to `Oc1ccc(/C=C/c2cc(O)cc(O)c2)cc1` [resveratrol], for which the IC50 in data set [5] is 5.3 µM and 5.26 µM; in data set [1], 1.71 µM and 1.7 µM; in data set [4], 4.38 µM; in data set [7] it was 10.1 µM. In addition, in data set [1] (at 10~30 µg mL^−1, lysates of HEK293-TYR cells and HEMs), the “inhibition of human TYR activity” value was 80~90%. Besides, the “inhibition of murine TYR” value in data set [6] is 32.7%. Moreover, the “effect on melanin synthesis in HEMs” value in data set [2] is reported as “dose dependently attenuated; also recorded: reduce melanin synthesis in HEMs at subtoxic concentrations”; in data set [2] (listed as Resveratrol), “inhibited melanin synthesis by human epidermal melanocytes at subtoxic concentrations”. Besides, in data set [3], the “concentration causing cytotoxicity in HEMs” value is listed as “above 10 µM”. In addition, the negative-log IC50 (pIC50) in data set [4] (dose-response curve at low concentration range, read-out: IC50 against murine TYR) was 5.37. Further, in data set [8], the “effect on mushroom TYR activity” value was “much smaller effect on mushroom TYR activity; also recorded: very low”.

The record behind these values is article PMC3583093 (Evidence-based Complementary and Alternative Medicine : eCAM, 2013).
